# In patent US9107926B2, “Mutant selectivity and combinations of a phosphoinositide 3-kinase inhibitor compound and chemotherapeutic agents for the treatment of cancer” (Genentech, Inc., priority 2012, dated 2015):
# Legend:
# [1] = test system: HCC-202; test: CellTiter-Glo cell proliferation assay; format: cell-based; settings: HCC202, Breast, Helical-HET.545E > K, HET.866L > F, HET.391I > M
# [2] = test system: HS 578T-1x2; test: CellTiter-Glo cell proliferation assay; format: cell-based; settings: Breast, WT
# [3] = test system: SKBR3; test: CellTiter-Glo cell proliferation assay; format: cell-based; settings: Homo sapiens, SK-BR-3, Breast, HER2 Amplified
# Method: Cell Culture Medium: RPMI or DMEM high glucose, 10% Fetal Bovine Serum, 2 mM L-Glutamine, P/S. Incubate O/N (overnight) at 37° C., 5% CO2.
# Drug Addition to Cells, Cell Plate (1:10 dilution): Add 6 μl of media+compound directly to cells (54 μl of media on the cells already). Incubate 3 days at 37° C., 5% CO2 in an incubator that will not be opened often.
# Day 5—Develop Plates, Thaw Cell Titer Glo Buffer at room temperature: Remove Cell Plates from 37° C. and equilibrate to room temperature for about 30 minutes. Add Cell Titer-Glo® Buffer to Cell Titer-Glo® Substrate (bottle to bottle). Add 30 μl Cell Titer-Glo® Reagent (Promega cat.#G7572) to each well of cells. Place on plate shaker for about 30 minutes. Read luminescence on Analyst HT Plate Reader (half second per well).
# [4] = test system: SF539; test: CellTiter-Glo cell proliferation assay; format: cell-based; settings: Homo sapiens, SF-539, Glioma, PTEN
# [5] = test system: H460; test: CellTiter-Glo cell proliferation assay; format: cell-based; settings: Homo sapiens, NCI-H460, Lung(NSCLC), KRAS/HEt.545E > K
# [6] = test system: H2171; test: CellTiter-Glo cell proliferation assay; format: cell-based; settings: Homo sapiens, NCI-H2171, Lung(SC), K-RAS
# [7] = test system: OVCAR3; test: CellTiter-Glo cell proliferation assay; format: cell-based; settings: Homo sapiens, OVCAR-3, Ovarian, WT
# [8] = test system: SW48 parental cells; test: four day CellTiter-Glo viability assay, SW48 isogenic cell line set; settings: Homo sapiens, SW48, 96 h, read-out: Viability EC50
# From the text: SW48 parental cells and knock-in mutant subclones harboring common PIK3CA hotspot mutations E545K or H1047R were obtained from Horizon Discovery.
compound,measurement,setting,value
"Cc1nc(-c2cn3c(n2)-c2ccc(-c4cnn(C(C)(C)C(N)=O)c4)cc2OCC3)n(C(C)C)n1 [GDC-0032, 2-(4-(2-(1-isopropyl-3-methyl-1H-1,2,4-triazol-5-yl)-5,6-dihydrobenzo[f]imidazo[1,2-d][1,4]oxazepin-9-yl)-1H-pyrazol-1-yl)-2-methylpropanamide]",EC50,[1],18 nM
same,EC50,[2],2070 nM
same,EC50,[3],43 nM
same,EC50,[4],1880 nM
same,EC50,[5],603 nM
same,EC50,[6],1450 nM
same,EC50,[7],398 nM
same,EC50,[8],22 nM
